Earlier results as cited in patent US5516921A, “Thiono-lactone inhibitors of protein trafficking and uses therefor” (Ariad Pharmaceuticals, Inc., priority 1994, dated 1996).

Assays:
[1] = in vivo

Structure (SMILES): C[C@H]1CCC/C=C/[C@@H]2C[C@H](O)C[C@H]2[C@H](O)/C=C/C(=O)O1 [BFA, Brefeldin A]
- biological half-life [1]: short
- time at which release of β-COP from the Golgi is complete (β-COP; complete release after BFA treatment): 1 to 2 min
- time at which release of β-COP from the Golgi occurs after treatment (β-COP; onset of release after BFA treatment): ≤ 20 s
